This is an account of results in patent US11603355B2, “Charged ion channel blockers and methods for use” (Nocion Therapeutics, Inc., priority 2019, dated 2023).

The assay addresses T1, NaV1.7 (Homo sapiens, UniProt Q15858).
T1 construct: expressed in transfected cells; host or cells: HEK293 (tetracycline-inducible)
Description: Manual patch clamp, external block of NaV1.7 current. In kind it is cell-based. The note with it: % inhibition at 10 μM test concentration, compound in external solution, HEK293 cells; for inhibition at 10 µM: read-out: Nav1.7 Extracellular Inhibition. As for the experimental part:
Representative compounds of the invention were synthesized according to the described methods and tested for the ability to inhibit voltage-gated sodium channels.
NaV1.7 was expressed in HEK293 cells upon induction with tetracycline. Cells were cultured in DMEM containing 10% dialyzed Fetal Bovine Serum (VWR, Radnor, Pa.), 1% Glutamax (VWR, Radnor, Pa.), 1% Penicillin-Streptomycin (VWR, Radnor, Pa.), 100 mg/L Hygromycin (Thermo Fisher Scientific, Waltham, Mass. and 5 mg/L Blasticidin (Alfa Aesar, Haverhill, Mass.). Cells were grown and maintained at 37° C. in a humidified environment containing 10% CO2 in air. Cells were detached from the culture flask for passage and harvested using 0.05% Trypsin-EDTA (Thermo Fisher Scientific, Waltham, Mass.). To induce NaV1.7, cells were induced with tetracycline (0.1-1 μg/mL, IBI Scientific, Peosta, Iowa) the day before recording and plated onto 24-well plates. Cells were washed with DPBS (VWR, Radnor, Pa.), trypsinized and then triturated five times in 10 mL of growth media to break apart cell aggregates. For one 24-well plate, 2 mL of cell suspension was mixed with 23 mL of fresh growth media and 0.1-1 μg/mL tetracycline added. 1 ml of mixed media with cells was then added to each well of a 24-well plate, with a 12 mm coverslip already placed in the bottom of the well. Cells were then incubated in 37° C. and 10% CO2 overnight.
The intracellular solution contained the following (in mM) CsCl 135, NaCl 10, EGTA 10, HEPES 10, MgCl2 2, adjusted to pH 7.2 with CsOH. The external solution was a normal Ringer solution containing (in mM) NaCl 155, HEPES 10, glucose 10, KCl 3.5, CaCl2 1.5, MgCl2 1 adjusted to pH 7.4 with NaOH. CsCl is from Alfa Aesar, Haverhill, Mass. All other chemicals are from Sigma-Aldrich, St. Louis, Mo. In order to test the degree of internal block by test compounds the compounds were dissolved in internal solution at the indicated test concentration. […] In order to test the degree of external block by test compounds the compounds were dissolved in external solution at the indicated test concentration.
18-24 hours after cells were induced with tetracycline, coverslips were placed into a chamber filled with Normal Ringer solution at room temperature and the chamber placed on a microscope. Pipettes were pulled from borosilicate glass on a P97 puller (Sutter Instrument, Novato, Calif.) and polished with a MF-830 Microforge (Narishige International USA, Inc., Amityville, N.Y.) to have a resistance of 1.5-2.5 MΩ when filled with CsCl internal solution at room temperature. Healthy cells (those that are round and translucent with no visible blemishes) were chosen for seal formation. A seal was formed between the pipette and the cell, and a brief pulse of suction was used to “break in” and establish the whole-cell configuration. The membrane potential was held at −100 mV before the voltage protocol began. Only cells with series resistance between 1.5-5 MΩ were retained for analysis. The voltage protocol was as follows: Cells were held at −100 mV for 12 ms followed by a hyperpolarizing step to −105 mV for 12 ms to monitor the leak. Cells were then stepped back to −100 mV for 40 ms. Cells were then depolarized to −20 mV for 10 ms and then returned to −100 mV for 26 ms.
Once the recording was started, the voltage protocol was run at 30 second intervals for 5 minutes to get a stable baseline. This is followed by 5 Hz stimulation of the same voltage protocol run until the end of experiment. […] The test compound is added for 5 minutes before washing out with normal Ringer's solution. Currents were recorded using PatchMaster software with Heka EPC10 (HEKA Electronics, Lambrecht, Germany). Only cells with inward current amplitudes at −20 mV between 400 pA and 4 nA were accepted. In addition, cells having leak currents greater than 10% of their current amplitudes were discarded. […]
A general note: In patch-clamp work, channel activity is measured electrically.

Structures can show the parent of a compound that is named as a salt.

T1 sequence (Q15858 whole entry): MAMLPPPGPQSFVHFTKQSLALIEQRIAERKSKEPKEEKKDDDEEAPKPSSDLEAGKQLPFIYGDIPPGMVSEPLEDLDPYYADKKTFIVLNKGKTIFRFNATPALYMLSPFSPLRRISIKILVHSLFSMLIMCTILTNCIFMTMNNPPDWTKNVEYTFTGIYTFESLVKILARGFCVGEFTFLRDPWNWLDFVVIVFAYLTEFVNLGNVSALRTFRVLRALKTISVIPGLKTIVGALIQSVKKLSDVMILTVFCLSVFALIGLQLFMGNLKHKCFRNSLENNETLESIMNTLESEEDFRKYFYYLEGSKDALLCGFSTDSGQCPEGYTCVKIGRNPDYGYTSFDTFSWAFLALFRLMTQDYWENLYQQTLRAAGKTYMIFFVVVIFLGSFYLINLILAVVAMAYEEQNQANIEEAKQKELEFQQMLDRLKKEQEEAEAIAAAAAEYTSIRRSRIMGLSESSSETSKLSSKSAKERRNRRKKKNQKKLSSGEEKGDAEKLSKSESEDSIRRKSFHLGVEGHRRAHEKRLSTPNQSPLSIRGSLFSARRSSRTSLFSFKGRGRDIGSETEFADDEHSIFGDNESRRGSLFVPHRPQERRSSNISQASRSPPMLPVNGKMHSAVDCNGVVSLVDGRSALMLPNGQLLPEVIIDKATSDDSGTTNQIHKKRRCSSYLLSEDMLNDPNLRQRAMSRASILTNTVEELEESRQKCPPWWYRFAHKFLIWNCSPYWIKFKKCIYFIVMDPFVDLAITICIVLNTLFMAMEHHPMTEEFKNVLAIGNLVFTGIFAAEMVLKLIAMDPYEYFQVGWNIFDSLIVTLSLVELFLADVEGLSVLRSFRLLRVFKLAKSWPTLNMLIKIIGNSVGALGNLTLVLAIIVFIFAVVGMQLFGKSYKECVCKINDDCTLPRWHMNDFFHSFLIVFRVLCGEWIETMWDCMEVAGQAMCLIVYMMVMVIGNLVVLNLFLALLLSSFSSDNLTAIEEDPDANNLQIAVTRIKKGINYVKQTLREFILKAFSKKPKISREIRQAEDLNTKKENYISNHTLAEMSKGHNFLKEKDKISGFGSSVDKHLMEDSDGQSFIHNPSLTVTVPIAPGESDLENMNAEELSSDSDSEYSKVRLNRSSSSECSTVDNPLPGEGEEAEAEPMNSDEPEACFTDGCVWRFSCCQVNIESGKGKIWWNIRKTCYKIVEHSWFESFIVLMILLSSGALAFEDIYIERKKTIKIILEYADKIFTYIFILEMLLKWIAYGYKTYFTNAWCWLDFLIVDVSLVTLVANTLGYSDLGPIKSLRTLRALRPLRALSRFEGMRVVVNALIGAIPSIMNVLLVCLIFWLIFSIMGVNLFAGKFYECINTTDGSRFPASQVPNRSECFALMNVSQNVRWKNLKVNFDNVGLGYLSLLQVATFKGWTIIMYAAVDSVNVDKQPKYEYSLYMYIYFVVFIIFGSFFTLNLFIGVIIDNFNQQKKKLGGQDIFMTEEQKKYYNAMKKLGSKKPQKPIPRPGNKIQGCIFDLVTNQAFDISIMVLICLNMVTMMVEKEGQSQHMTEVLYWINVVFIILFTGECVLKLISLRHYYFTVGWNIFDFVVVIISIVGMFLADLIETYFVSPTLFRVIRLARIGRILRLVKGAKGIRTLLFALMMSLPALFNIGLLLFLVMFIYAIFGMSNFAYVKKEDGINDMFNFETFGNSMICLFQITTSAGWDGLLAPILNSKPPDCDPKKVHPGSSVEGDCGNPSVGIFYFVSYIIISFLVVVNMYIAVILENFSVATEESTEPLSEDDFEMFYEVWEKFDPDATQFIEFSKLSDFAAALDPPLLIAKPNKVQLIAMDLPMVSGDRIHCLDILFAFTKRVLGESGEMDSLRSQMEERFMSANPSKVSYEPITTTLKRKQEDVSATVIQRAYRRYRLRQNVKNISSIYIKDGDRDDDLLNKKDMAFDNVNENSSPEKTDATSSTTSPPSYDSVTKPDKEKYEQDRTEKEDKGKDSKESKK

Consider “1-benzyl-1-(2-((2-(dimethylcarbamoyl)-6-methylphenyl) amino)-2-oxoethyl) azepan-1-ium bromide [Compound 81A]”, for which the “Nav1.7 Extracellular Inhibition” value is reported as “+ (“+” (<40%))”. The inhibition is the drop in the measured response relative to a control, in per cent. For `Cc1cccc(C)c1NC(=O)C[N+]1(Cc2ccccc2)CCCC(C(=O)OC(C)C)C1` (mixture of isomers) [Compound 46A, 1-benzyl-1-(2-((2,6-dimethylphenyl)amino)-2-oxoethyl)-3-(isopropoxycarbonyl) piperidin-1-ium trifluoroacetate salt], the inhibition at 10 µM was 40 to 70%.

On to `Cc1cccc(C)c1NC(=O)C[N+]1(Cc2ccccc2)CCCC(C(N)=O)C1.[Br-]` (mixture of isomers) [Compound 53A, 1-benzyl-3-carbamoyl-1-(2-((2,6-dimethylphenyl)amino)-2-oxoethyl) piperidin-1-ium bromide], for which the inhibition at 10 µM was under 40%. For the molecule `[2H]c1c([2H])c([2H])c(C[N+]2(CC(=O)Nc3c(C)cccc3C)CCCCCC2)c([2H])c1[2H].[Cl-]` [Compound 33A, 1-(2-((2,6-dimethylphenyl)amino)-2-oxoethyl)-1-((phenyl-d5)methyl) azepan-1-ium chloride], the inhibition at 10 µM fell in the range of 40 to 70%. The same measure, in the same setting: next, `COC(=O)c1cccc(C[N+]2(CC(=O)Nc3c(C)cccc3C)CCCCC2)c1.[Br-]` [Compound 35A, 1-(2-((2,6-dimethylphenyl)amino)-2-oxoethyl)-1-(3-(methoxycarbonyl)benzyl) piperidin-1-ium bromide]: under 40%; `Cc1cccc(C)c1N(C)C(=O)C[N+]1(Cc2ccccc2)CCCCCC1` [Compound 38A, 1-benzyl-1-(2-((2,6-dimethylphenyl) (methyl)amino)-2-oxoethyl) azepan-1-ium formate]: under 40%; `COC(=O)C1CC[N+](CC(=O)Nc2c(C)cccc2C)(Cc2ccccc2)CC1.[Br-]` (stereo not shown) [Compound 44A, 1-benzyl-1-(2-((2,6-dimethylphenyl)amino)-2-oxoethyl)-4-(methoxycarbonyl) piperidin-1-ium bromide]: under 40%. On the same count and under the same terms, to `CCCOC(=O)C1CCC[N+](CC(=O)Nc2c(C)cccc2C)(Cc2ccccc2)C1.[Br-]` (stereo not shown) [Compound 47A, 1-benzyl-1-(2-((2,6-dimethylphenyl)amino)-2-oxoethyl)-3-(propoxycarbonyl) piperidin-1-ium bromide] belongs 40 to 70%. Still for that read-out and setting: to `Cc1cccc(F)c1NC(=O)C[N+]1(Cc2ccccc2)CCCCCC1.[Br-]` [Compound 69A, 1-benzyl-1-(2-((2-fluoro-6-methylphenyl)amino)-2-oxoethyl)azepan-1-ium bromide] belongs under 40%; to `Cc1cccc(-c2ccccc2)c1NC(=O)C[N+]1(Cc2ccccc2)CCCCCC1.[Br-]` [Compound 76A], 40 to 70%; to `CCC(=O)Oc1cccc(C)c1NC(=O)C[N+]1(Cc2ccccc2)CCCCCC1.[Br-]` [Compound 80A, 1-benzyl-1-(2-((2-methyl-6-(propionyloxy)phenyl)amino)-2-oxoethyl) azepan-1-ium bromide], under 40%. `CC[N+](CC)(CCCc1ccccc1)CC(=O)Nc1c(C)cccc1C.[Br-]` [Compound 86A, N-(2-((2,6-dimethylphenyl)amino)-2-oxoethyl)-N, N-diethyl-3-phenylpropan-1-aminium bromide]: the inhibition at 10 µM was under 40%. In the case of `Cc1cccc(C)c1N1CCC([N+]2(Cc3ccccc3)CCCCCCC2)C1=O.[Br-]` (stereo not shown) [Compound 90A], the inhibition at 10 µM was under 40%.
